Results published in PubChem BioAssay AID256 (DTP/NCI, 2004).
“And” between values parts separate entries of the source, which are not always exact repeats. Equal entries are not always repeated. Inconclusive results and toxic doses are left out. Rule for the calls: active = survival T/C of 150% or more; inactive = T/C below 125% in these data.

Tested on: CD2F1 mice, L1210 leukemia ip, survival T/C
Assay: NCI In Vivo Anticancer Drug Screen. Data for tumor model L1210 Leukemia (intraperitoneal) in CD2F1 (CDF1) mice
Conditions: higher = longer survival
How it was run: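 In this screen, transplantable tumors were grown in mice given either the compound or its vehicle. Results were expressed as the treated measurement relative to the control measurement.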

[1] = endpoint: mean survival time, dose: 100.0 mg/kg/injection, schedule: Q01DX009 (ip), vehicle: Klucel (hydroxypropylcellulose) (HPC)
[2] = endpoint: mean survival time, dose: 200.0 mg/kg/injection, schedule: Q01DX009 (ip), vehicle: Klucel (hydroxypropylcellulose) (HPC)
[3] = endpoint: mean survival time, dose: 100.0 mg/kg/injection, schedule: Q01DX009 (ip), vehicle: saline with Tween-80
[4] = endpoint: mean survival time, dose: 200.0 mg/kg/injection, schedule: Q01DX009 (ip), vehicle: saline with Tween-80
[5] = endpoint: mean survival time, dose: 400.0 mg/kg/injection, schedule: Q01DX009 (ip), vehicle: saline with Tween-80
[6] = endpoint: mean survival time, dose: 12.5 mg/kg/injection, schedule: Q01DX009 (ip), vehicle: saline with Tween-80
[7] = endpoint: mean survival time, dose: 25.0 mg/kg/injection, schedule: Q01DX009 (ip), vehicle: saline with Tween-80
[8] = endpoint: mean survival time, dose: 50.0 mg/kg/injection, schedule: Q01DX009 (ip), vehicle: saline with Tween-80
[9] = endpoint: mean survival time, dose: 100.0 mg/kg/injection, schedule: Q01DX009 (ip), vehicle: saline
[10] = endpoint: mean survival time, dose: 100.0 mg/kg/injection, schedule: Q01DX001 (ip), vehicle: saline with Tween-80
[11] = endpoint: mean survival time, dose: 200.0 mg/kg/injection, schedule: Q01DX001 (ip), vehicle: saline with Tween-80
[12] = endpoint: mean survival time, dose: 400.0 mg/kg/injection, schedule: Q01DX001 (ip), vehicle: saline with Tween-80

Measured: T/C

O=C(C(=O)c1ccc(Cl)c(Cl)c1)c1ccc(Cl)c(Cl)c1
inactive: [1] 90 % of control | [2] 91 % of control | endpoint: mean survival time, dose: 400.0 mg/kg/injection, schedule: Q01DX009 (ip), vehicle: Klucel (hydroxypropylcellulose) (HPC) 96 % of control

COc1ccccc1N/N=C1/CCCNC1=O
inactive: [3] 98 % of control | [4] 101 % of control | [5] 95 % of control

[CH3][Pb]([CH3])([CH3])[Cl]
inactive: endpoint: mean survival time, dose: 1.56 mg/kg/injection, schedule: Q01DX009 (ip), vehicle: saline 97 % of control | endpoint: mean survival time, dose: 1.56 mg/kg/injection, schedule: Q04DX002 (ip), vehicle: saline 101 % of control | endpoint: mean survival time, dose: 3.13 mg/kg/injection, schedule: Q01DX009 (ip), vehicle: saline 87 % of control | endpoint: mean survival time, dose: 3.13 mg/kg/injection, schedule: Q04DX002 (ip), vehicle: saline 108 % of control | endpoint: mean survival time, dose: 6.25 mg/kg/injection, schedule: Q04DX002 (ip), vehicle: saline 92 % of control | endpoint: mean survival time, dose: 12.5 mg/kg/injection, schedule: Q04DX002 (ip), vehicle: saline 93 % of control

C=CCc1ccc(OC(=O)Nc2ccc(C)c([N+](=O)[O-])c2)c(OC)c1
inactive: [6] 98 % of control | [7] 103 % of control | [8] 98 % of control | [4] 88 % of control

CCCCCCCCCCCCCCCCn1cnc2c(Cl)ncnc21
inactive: endpoint: mean survival time, dose: 12.5 mg/kg/injection, schedule: Q01DX005 (ip), vehicle: other 94 % of control | endpoint: mean survival time, dose: 25.0 mg/kg/injection, schedule: Q01DX005 (ip), vehicle: other 91 % of control | endpoint: mean survival time, dose: 50.0 mg/kg/injection, schedule: Q01DX005 (ip), vehicle: other 91 % of control | endpoint: mean survival time, dose: 100.0 mg/kg/injection, schedule: Q01DX005 (ip), vehicle: other 92 % of control | endpoint: mean survival time, dose: 200.0 mg/kg/injection, schedule: Q01DX005 (ip), vehicle: other 89 % of control

CC(=O)CC(O)(C(F)(F)F)C(F)(F)F
inactive: [8] 101 % of control | [3] 102 % of control | endpoint: mean survival time, dose: 100.0 mg/kg/injection, schedule: Q04DX003 (ip), vehicle: saline with Tween-80 102 % of control | [4] 101 % of control | endpoint: mean survival time, dose: 200.0 mg/kg/injection, schedule: Q04DX003 (ip), vehicle: saline with Tween-80 89 % of control

O=C1N(c2ccccc2)CCS1(=O)=O
inactive: endpoint: mean survival time, dose: 9.5 mg/kg/injection, schedule: Q01DX001 (ip), vehicle: other 101 % of control | endpoint: mean survival time, dose: 19.0 mg/kg/injection, schedule: Q01DX001 (ip), vehicle: other 100 % of control | endpoint: mean survival time, dose: 38.0 mg/kg/injection, schedule: Q01DX001 (ip), vehicle: other 106 % of control

CCCCCOC(=O)CCCc1ccc(N(CCCl)CCCl)cc1
inactive: endpoint: mean survival time, dose: 12.5 mg/kg/injection, schedule: Q01DX009 (ip), vehicle: saline 118 % of control | [9] 88 % of control

Nc1cc(Cl)c(O)c(Cl)c1
inactive: [10] 92 % of control

CN(C)P(=O)(Oc1ccccc1)N(C)C
inactive: [6] 98 % of control and 100 % of control | [7] 95 % of control and 101 % of control | [8] 89 % of control and 96 % of control | [3] 94 % of control and 101 % of control | [4] 95 % of control and 96 % of control | [5] 93 % of control and 96 % of control

Cc1nc(N)[nH]c(=O)c1CCCNCc1ccncc1
inactive: [10] 87 % of control | [11] 91 % of control | [12] 90 % of control

CC(=O)NC(C)(NC(C)=O)C(=O)O
inactive: endpoint: mean survival time, dose: 50.0 mg/kg/injection, schedule: Q01DX009 (ip), vehicle: Klucel (hydroxypropylcellulose) (HPC) 95 % of control | [1] 98 % of control | [2] 95 % of control

NN1CCCCC1
inactive: endpoint: mean survival time, dose: 100.0 mg/kg/injection, schedule: Q04DX002 (ip), vehicle: saline 103 % of control | endpoint: mean survival time, dose: 200.0 mg/kg/injection, schedule: Q04DX002 (ip), vehicle: saline 95 % of control

CC(N)(CCOCc1ccccc1)C(=O)O (centres undefined)
inactive: [10] 97 % of control | [3] 103 % of control | [11] 96 % of control | [4] 101 % of control | [12] 103 % of control | [5] 101 % of control

OCC1OC(n2cnc3c(SSc4ncnc5c4ncn5C4CC(O)C(CO)O4)ncnc32)CC1O (centres undefined)
inactive: endpoint: mean survival time, dose: 178.0 mg/kg/injection, schedule: Q01DX001 (ip), vehicle: saline 114 % of control

CNCCOC(=O)/C=C/c1ccccc1
inactive: [9] 98 % of control | endpoint: mean survival time, dose: 200.0 mg/kg/injection, schedule: Q01DX009 (ip), vehicle: saline 95 % of control | endpoint: mean survival time, dose: 400.0 mg/kg/injection, schedule: Q01DX009 (ip), vehicle: saline 95 % of control

[Cl][Pt+2][Cl].[NH-]C(c1ccccc1)C([NH-])c1ccccc1 (centres undefined)
inactive: endpoint: mean survival time, dose: 6.25 mg/kg/injection, schedule: Q04DX003 (ip), vehicle: saline with Tween-80 112 % of control and 110 % of control and 96 % of control | endpoint: mean survival time, dose: 12.5 mg/kg/injection, schedule: Q04DX003 (ip), vehicle: saline with Tween-80 102 % of control and 114 % of control and 106 % of control | endpoint: mean survival time, dose: 25.0 mg/kg/injection, schedule: Q04DX003 (ip), vehicle: saline with Tween-80 120 % of control and 124 % of control and 114 % of control | endpoint: median survival time, dose: 10.0 mg/kg/injection, schedule: Q04DX003 (ip), vehicle: Klucel (hydroxypropylcellulose) (HPC) 111 % of control | endpoint: median survival time, dose: 20.0 mg/kg/injection, schedule: Q04DX003 (ip), vehicle: Klucel (hydroxypropylcellulose) (HPC) 113 % of control | endpoint: median survival time, dose: 40.0 mg/kg/injection, schedule: Q04DX003 (ip), vehicle: Klucel (hydroxypropylcellulose) (HPC) 122 % of control | endpoint: median survival time, dose: 50.0 mg/kg/injection, schedule: Q04DX003 (ip), vehicle: Klucel (hydroxypropylcellulose) (HPC) 101 % of control | endpoint: median survival time, dose: 80.0 mg/kg/injection, schedule: Q04DX003 (ip), vehicle: Klucel (hydroxypropylcellulose) (HPC) 112 % of control | endpoint: median survival time, dose: 100.0 mg/kg/injection, schedule: Q04DX003 (ip), vehicle: Klucel (hydroxypropylcellulose) (HPC) 107 % of control | endpoint: median survival time, dose: 200.0 mg/kg/injection, schedule: Q04DX003 (ip), vehicle: Klucel (hydroxypropylcellulose) (HPC) 107 % of control

O=S(CCCl)CCCl
inactive: endpoint: mean survival time, dose: 0.5 mg/kg/injection, schedule: Q01DX009 (ip), vehicle: Klucel (hydroxypropylcellulose) (HPC) 93 % of control | endpoint: mean survival time, dose: 0.5 mg/kg/injection, schedule: Q04DX003 (ip), vehicle: Klucel (hydroxypropylcellulose) (HPC) 98 % of control | endpoint: mean survival time, dose: 1.0 mg/kg/injection, schedule: Q01DX009 (ip), vehicle: Klucel (hydroxypropylcellulose) (HPC) 101 % of control | endpoint: mean survival time, dose: 1.0 mg/kg/injection, schedule: Q04DX003 (ip), vehicle: Klucel (hydroxypropylcellulose) (HPC) 100 % of control | endpoint: mean survival time, dose: 1.56 mg/kg/injection, schedule: Q01DX009 (ip), vehicle: Klucel (hydroxypropylcellulose) (HPC) 109 % of control | endpoint: mean survival time, dose: 2.0 mg/kg/injection, schedule: Q01DX009 (ip), vehicle: Klucel (hydroxypropylcellulose) (HPC) 96 % of control | endpoint: mean survival time, dose: 2.0 mg/kg/injection, schedule: Q04DX003 (ip), vehicle: Klucel (hydroxypropylcellulose) (HPC) 98 % of control | endpoint: mean survival time, dose: 3.12 mg/kg/injection, schedule: Q01DX009 (ip), vehicle: Klucel (hydroxypropylcellulose) (HPC) 100 % of control | endpoint: mean survival time, dose: 4.0 mg/kg/injection, schedule: Q01DX009 (ip), vehicle: Klucel (hydroxypropylcellulose) (HPC) 106 % of control | endpoint: mean survival time, dose: 4.0 mg/kg/injection, schedule: Q04DX003 (ip), vehicle: Klucel (hydroxypropylcellulose) (HPC) 102 % of control | endpoint: mean survival time, dose: 6.25 mg/kg/injection, schedule: Q01DX009 (ip), vehicle: Klucel (hydroxypropylcellulose) (HPC) 104 % of control | endpoint: mean survival time, dose: 8.0 mg/kg/injection, schedule: Q01DX009 (ip), vehicle: Klucel (hydroxypropylcellulose) (HPC) 100 % of control | endpoint: mean survival time, dose: 8.0 mg/kg/injection, schedule: Q04DX003 (ip), vehicle: Klucel (hydroxypropylcellulose) (HPC) 98 % of control | endpoint: mean survival time, dose: 12.5 mg/kg/injection, schedule: Q01DX009 (ip), vehicle: Klucel (hydroxypropylcellulose) (HPC) 102 % of control | endpoint: mean survival time, dose: 16.0 mg/kg/injection, schedule: Q01DX009 (ip), vehicle: Klucel (hydroxypropylcellulose) (HPC) 100 % of control | endpoint: mean survival time, dose: 16.0 mg/kg/injection, schedule: Q04DX003 (ip), vehicle: Klucel (hydroxypropylcellulose) (HPC) 100 % of control | endpoint: mean survival time, dose: 25.0 mg/kg/injection, schedule: Q01DX009 (ip), vehicle: Klucel (hydroxypropylcellulose) (HPC) 103 % of control | endpoint: mean survival time, dose: 32.0 mg/kg/injection, schedule: Q04DX003 (ip), vehicle: Klucel (hydroxypropylcellulose) (HPC) 106 % of control

CN(C)P(=O)(OCCCOCc1ccccc1)N(CCCl)CCCl (centres undefined)
inactive: endpoint: mean survival time, dose: 25.0 mg/kg/injection, schedule: Q01DX001 (ip), vehicle: other 93 % of control | endpoint: mean survival time, dose: 50.0 mg/kg/injection, schedule: Q01DX001 (ip), vehicle: other 101 % of control | endpoint: mean survival time, dose: 100.0 mg/kg/injection, schedule: Q01DX001 (ip), vehicle: other 91 % of control | endpoint: mean survival time, dose: 200.0 mg/kg/injection, schedule: Q01DX001 (ip), vehicle: other 90 % of control | endpoint: mean survival time, dose: 400.0 mg/kg/injection, schedule: Q01DX001 (ip), vehicle: other 87 % of control
